The values below come from patent publication US8772235B2, “Compounds having peptides conjugated to bone targeting moieties and methods of making and using thereof” (The Governors of the University of Alberta, priority 2009, dated 2014).

Data set [1] is described as follows: Bone mineral specificity: calcium carbonate binding assay. To be noted: 1 h, 100 mM phosphate buffer pH 7. On the procedure: (§1) Bone targeting potential of sCT analogue was evaluated by determining the effect of sCT modification (due to chemical coupling) upon its bone mineral affinity. Specific volume of purified sCT analogue solution containing 10 μg of sCT was mixed with 1 mg Hydroxyapatite (HA) in 150 μL 100 mM phosphate buffer (pH 7.0) in microcentrifuge tubes in duplicate to give a final concentration of 66.67 μg/ml sCT. As a reference, control samples were incubated in tubes without HA (i.e., 0% of binding).
(§2) The tubes were incubated at room temperature on a shaker for 1 h, and centrifuged at 5000 g for 5 minutes to separate the HA from the supernatant. sCT concentration in the supernatant was determined using the BCA microprotein assay (Pierce, USA) as described above. HA centrifugate remaining after removal of supernatant was washed five times using 1 mL buffer each time and the last washing after centrifugation at 5000 g for 5 minutes was collected. Both the washings and the HA centrifugate were then analyzed for sCT as described above. The amount of sCT in the supernatant, washings and HA centrifugate was then inferred by measuring the absorbance at 562 nm, with a value of 100% for control samples without HA.
Bone mineral specificity of sCT analogue was then determined in the above manner using HA, calcium carbonate, calcium pyrophosphate, tricalcium phosphate and calcium oxalate.

In data set [2] the target is serum albumin (Homo sapiens, UniProt P02768). The settings on record: systemically administered; cited from earlier work.
Data set [3] in a line: Hydroxyapatite (HA) binding assay, bone mineral affinity. The settings on record: 10 μg sCT, 1 mg HA, 1 h, 100 mM phosphate buffer pH 7.0. On the procedure: as §1, §2
Data set [4] in a line: Effect on plasma calcium level in normal rats (PEG series). The data set is classed as in vivo, rat. To be noted: 20 IU sCT/kg equivalent, subcutaneous. On the procedure: Pharmacodynamic response of sCT analogue was evaluated by analyzing plasma calcium concentration in the rat model. Sprague Dawley female rats weighing 230-260 g (about 6 weeks old) were purchased from Charles River, USA and housed at the University of Alberta Animal Holding Unit. All experimental protocols were approved by the Animals Ethics Committee of the University of Alberta. The rats were divided randomly into five groups of 3 animals each and the pharmacodynamic response was assessed following subcutaneous administration of the sCT or analogue equivalent to 20 IU sCT/kg body weight. Rats were anesthetized using Isoflurane inhalation anesthesia and the 200 μl blood samples were obtained in heparinized Eppendorf microtubes before drug injection. Then 100 μl of sCT or equivalent dose in 20 mM Sodium Acetate buffer pH 5 was injected and the blood samples were collected 1, 2, 3 and 4 hrs post injection from jugular vein. Blood plasma was obtained by centrifuging the samples at 5000 rpm for 10 min and collecting the supernatant. Plasma calcium level was assayed by QuantiChrom™ Calcium Assay Kit (BioAssay Systems, CA USA) and the plasma phosphate level was assayed by QuantiChrom™ Phosphate Assay Kit (BioAssay Systems, CA USA).

Data set [5] relates to RAW 264.7 cells. Description: MTT cytotoxicity on osteoclast precursor RAW 264.7 cells (PEG series). The settings on record: 100, 500 and 1000 nM sCT or equivalent, 4 hours incubation. The data set is classed as cell-based, mouse. On the procedure:
RAW 264.7 cells (ATCC VA, USA) were seeded on 96 well plates at an initial density of 2×10^4 cells/well and incubated in 200 μl GIBCO High Glucose 1× Dulbecco's Modified Eagle Medium (DMEM) (Invitrogen CA, USA) supplemented with 4.5 g/L D-Glucose, L-Glutamine, 110 mg/L Sodium Pyruvate, 10% heat inactivated fetal bovine serum (FBS) and 1% Penicillin-Streptomycin (10000 U/mL; Invitrogen) in a Thermo Fisher Scientific Water Jacketed CO2 incubator (37° C., 5% CO2) until the cells were 80% confluent.
After 72 hrs, media was replaced by 200 μl basic DMEM media without FBS and incubated for 30 minutes. […] After removing the supernatant and washing twice with phosphate buffer saline, purple formazan crystals formed were dissolved in 200 μl solubilization solution (in vitro toxicology assay kit, # TOX-1, Sigma Aldrich, St. Louis, USA) and the absorbance was measured at 570 nm using microplate reader. Experiment was performed for n=8 and the absorbance of wells containing cells without sCT treatment was considered as 100% viable and used to calculate the relative viability of sCT treated cells.
In all in vitro and in vivo bioactivity assay the maximum concentration used was equivalent to 100 nM sCT. However, cytoxicity was determined for the concentration up to 1000 nM sCT or equivalent. […]

Data set [6] in a line: ELISA: anti-calcitonin antibody epitope binding on calcium phosphate coated plate (PEG series). To be noted: 1 μg/well, OD 650 nm. On the procedure:
sCT or sCT analogues equivalent to 1 μg/well were added in Calcium Phosphate coated Osteoclast Activity Assay Substrate plate (OCT USA, Inc.) in duplicate and the binding of BP to the calcium phosphate was allowed for 1 hours in the presence of 100 μl 100 mM Sodium Phosphate buffer pH 7. Plates were then washed three times with the same buffer containing 0.05% v/v Tween 80 (PBST). To avoid nonspecific binding, the wells were incubated with 3% w/v Bovine Serum Albumin for 1 h at room temperature. After washings, the wells were incubated with […] of 1:5000 diluted rabbit anti-salmon calcitonin primary monoclonal antibodies (US Biologicals, USA) for 1 h at room temperature. The wells were then washed three times with PBST and the bound antibodies were detected using secondary antibody, 1:5000 diluted goat anti-rabbit IgG conjugated with horseradish peroxidase (GAM-HRPO) for 1 h at room temperature. After final washings, 100 μl of 3,3′,5,5′-tetramethylbenzidine (TMB substrate) was added to each well and incubated for 15 min at room temperature. The optical density (OD) was measured at 650 nm using an ELISA Vmax kinetic microplate reader (Molecular Devices Corp., California, and USA).
For orientation: ELISA stands for enzyme-linked immunosorbent assay.

For the substance “Salmon calcitonin [sCT, reference compound]”, the “sCT concentration in supernatant after incubation with Calcium carbonate” value in data set [1] is recorded as “did not significantly reduce the sCT concentration in the supernatant”. Also, in data set [2], the “serum albumin bound in circulation” value was 40%. Also, the “sCT bound in HA” value in data set [3] is recorded as “did not significantly bind to HA”. In addition, the “percentage of plasma calcium reduction” value in data set [4] (4 hour post dosing) is given as 33.1±2.1%; in data set [4] (first hour, vs acetate buffer controls), 20.4±5.5%; in data set [4] (second hour) it was 29.9±4.9%. In addition, the “cytotoxicity (absorbance of formazan solution) compared to untreated media” value in data set [5] is listed as “low levels of cytotoxicity”. In addition, the “detection in ELISA after binding to calcium phosphate plate” value in data set [6] was “not significantly detected”.
